# Measured values published in paper PMC9942528 (Journal of medicinal chemistry, 2022).
# Like-named read-outs stand apart in the source and are kept apart here. Marks after values point to notes of the source that are not given here.
# What was measured:
# [1] = Stability assay in rat liver microsomes; type: in vitro ADME; conditions: for microsomal CLint at 2 h, 10 µM: pH 7.4; for less stable than (R)- and (S)-11b, (R)- and (S)-11c, and 2: recovery after 30 min; for less stable than (R)- and (S)-11b, (R)- and (S)-11c, and 2 / Metabolic stability, % after 30 min incubation: rat microsomes; for Metabolic stability, % after 30 min incubation: 10 μM, parent remaining
# [2] = tested on: mouse microglial N9 cells; assay: Cytotoxicity, MTT assay in N9 cells; type: cell-based
# [3] = tested on: murine N9 cells; assay: ELISA of TNF-α and IL-1β in N9 cells, resting and LPS-stimulated; type: cell-based, mouse; conditions: for release of IL-1β and TNF-α under resting conditions: 0.5 to 5 μM; for effect on LPS-induced cytokines (IL-1β, TNF-α) production: LPS 100 ng/mL 24 h
# [4] = target: T1, human FPR2 (Homo sapiens, UniProt P25090); assay: Ca2+ mobilization; conditions: for increase in FPR2 potency as compared to 2: ratio of EC50 values
# T1 sequence (P25090 1-351): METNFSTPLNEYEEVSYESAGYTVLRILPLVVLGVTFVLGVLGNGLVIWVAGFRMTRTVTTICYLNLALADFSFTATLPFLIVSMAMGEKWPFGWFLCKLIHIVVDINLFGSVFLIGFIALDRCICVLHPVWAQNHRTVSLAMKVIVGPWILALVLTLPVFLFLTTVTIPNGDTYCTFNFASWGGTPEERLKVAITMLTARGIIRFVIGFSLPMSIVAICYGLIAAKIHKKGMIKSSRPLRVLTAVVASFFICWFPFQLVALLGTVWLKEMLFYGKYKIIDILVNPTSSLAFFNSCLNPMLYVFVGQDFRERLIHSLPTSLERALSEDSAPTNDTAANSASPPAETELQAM
# [5] = tested on: rat primary microglial cells; assay: Nitric oxide; type: cell-based; conditions: for effect on LPS-induced NO production: 0.1 μM, LPS 100 ng/mL 24 h; for effect on NO production under resting conditions: rat primary microglial cells
# [6] = tested on: caspase-3; assay: Caspase-3 activity in rat primary microglial cells; type: cell-based; conditions: 0.1 μM, LPS 100 ng/mL 24 h
# [7] = tested on: rat primary microglial cells; assay: LDH release assay in rat primary microglial cells; conditions: for effect on LPS-induced cell death (LDH release): 0.1 μM, LPS 100 ng/mL 24 h; for effect on cell viability (LDH) under resting conditions: rat primary microglial cells
# [8] = target: T1, human FPR2; conditions: functional antagonism vs WKYMVM
# [9] = In vivo pharmacokinetics in mice; conditions: for Tmax: male, CD-1, mouse, plasma
# [10] = rat microsomes; ref [25]; cited from earlier work
# [11] = tested on: rat primary microglial cells; conditions: rat primary microglial cultures stimulated with LPS; ref [25]; cited from earlier work
# [12] = hCMEC/D3 cells; ref [25]; cited from earlier work
# [13] = tested on: mouse hippocampal organotypic cultures; conditions: OHCs stimulated with LPS, pre-treatment; ref [27]; cited from earlier work
# [14] = tested on: APP/PS1 mouse model; conditions: systemic administration, ref [28]; cited from earlier work
# [15] = rat, rat liver microsomes, pH 7.4, half-life
smiles,measurement,setting,value
"N#Cc1ccc(C[C@@H](NC(=O)Nc2ccc(F)cc2)C(=O)NC2CCCCNC2=O)cc1 (stereo partly drawn) [(R)-11a, (2R)-3-(4-Cyanophenyl)-2-(3-(4-fluorophenyl)ureido)-N-(2-oxoazepan-3-yl)propenamide]","microsomal CLint at 2 h, 10 µM","[1]; rat, rat liver microsomes",5.5 µL/min/mg
same,"half-life at 2 h, 10 µM",[1]; [15],120 min
same,cytotoxic effect in the MTT test,[2],did not exert any cytotoxic effects
"N#Cc1ccc(C[C@@H](NC(=O)Nc2ccc(F)cc2)C(=O)N2CCCCC2)cc1 [(R)-11b, (R)-1-(3-(4-Cyanophenyl)-1-oxo-1-(piperidin-1-yl)propan-2-yl)-3-(4-fluorophenyl)urea]",cytotoxic effect in the MTT test,[2],did not exert any cytotoxic effects
"N#Cc1ccc(C[C@@H](NC(=O)Nc2ccc(F)cc2)C(=O)N2CCCC2)cc1 [(R)-11c, (R)-1-(3-(4-Cyanophenyl)-1-oxo-1-(pyrrolidin-1-yl)propan-2-yl)-3-(4-fluorophenyl)urea]",cytotoxic effect in the MTT test,[2],did not exert any cytotoxic effects
"N#Cc1ccc(C[C@@H](NC(=O)Nc2ccc(F)cc2)C(=O)N2Cc3ccccc3C2)cc1 [(R)-11d, (R)-1-(3-(4-Cyanophenyl)-1-(isoindolin-2-yl)-1-oxopropan-2-yl)-3-(4-fluorophenyl)urea]","less stable than (R)- and (S)-11b, (R)- and (S)-11c, and 2",[1],2–3 fold
"N#Cc1ccc(C[C@@H](NC(=O)Nc2ccc(F)cc2)C(=O)N2CCc3ccccc32)cc1 [(R)-11e, (R)-1-(3-(4-Cyanophenyl)-1-(indolin-1-yl)-1-oxopropan-2-yl)-3-(4-fluorophenyl)urea]","less stable than (R)- and (S)-11b, (R)- and (S)-11c, and 2",[1],2–3 fold
"N#Cc1ccc(C[C@@H](NC(=O)Nc2ccc(F)cc2)C(=O)N2CCc3ccccc3C2)cc1 [(R)-11f, (R)-1-(3-(4-Cyanophenyl)-1-(3,4-dihydroisoquinolin-2(1H)-yl)-1oxopropan-2-yl)-3-(4-fluorophenyl)urea]","less stable than (R)- and (S)-11b, (R)- and (S)-11c, and 2",[1],2–3 fold
"N#Cc1ccc(C[C@@H](NC(=O)Nc2ccc(F)cc2)C(=O)N2CCCc3ccccc32)cc1 [(R)-11g, (R)-1-(3-(4-Cyanophenyl)-1-(3,4-dihydroquinolin-1(2H)-yl)-1-oxopropan-2-yl)-3-(4-fluorophenyl)urea]","less stable than (R)- and (S)-11b, (R)- and (S)-11c, and 2",[1],2–3 fold
"N#Cc1ccc(C[C@@H](NC(=O)Nc2ccc(F)cc2)C(=O)N2CCc3cc(F)ccc32)cc1 [(R)-11i, (R)-1-(3-(4-Cyanophenyl)-1-(5-fluoroindolin-1-yl)-1-oxopropan-2-yl)-3-(4-fluorophenyl)urea]","Metabolic stability, % after 30 min incubation",[1],58%
same,"microsomal CLint at 2 h, 10 µM","[1]; rat, rat liver microsomes",6.4 µL/min/mg
same,half-life at 10 μM,[1]; [15],108 min
"N#Cc1ccc(C[C@@H](NC(=O)Nc2ccc(F)cc2)C(=O)N2CCc3ccc(F)cc32)cc1 [(R)-11l, (R)-1-(3-(4-Cyanophenyl)-1-(6-fluoroindolin-1-yl)-1-oxopropan-2-yl)-3-(4-fluorophenyl)urea]","microsomal CLint at 2 h, 10 µM","[1]; rat, rat liver microsomes",23.3 µL/min/mg
same,"half-life at 2 h, 10 µM",[1]; [15],30 min
"N#Cc1ccc(C[C@H](NC(=O)Nc2ccc(F)cc2)C(=O)NC2CCCCNC2=O)cc1 (stereo partly drawn) [(S)-11a, (2S)-3-(4-Cyanophenyl)-2-(3-(4-fluorophenyl)ureido)-N-(2-oxoazepan-3-yl)propenamide]","microsomal CLint at 2 h, 10 µM","[1]; rat, rat liver microsomes",4.4 µL/min/mg
same,"half-life at 2 h, 10 µM",[1]; [15],157 min
same,cytotoxic effect in the MTT test,[2],did not exert any cytotoxic effects
same,release of IL-1β and TNF-α under resting conditions,[3],did not induce the release
same,"effect on LPS-induced cytokines (IL-1β, TNF-α) production",[3],effectively decrease LPS-induced cytokines production
same,increase in FPR2 potency as compared to 2,[4],20 fold
"N#Cc1ccc(C[C@H](NC(=O)Nc2ccc(F)cc2)C(=O)N2CCCCC2)cc1 [(S)-11b, (S)-1-(3-(4-Cyanophenyl)-1-oxo-1-(piperidin-1-yl)propan-2-yl)-3-(4-fluorophenyl)urea]","Metabolic stability, % after 30 min incubation",[1],34%
same,"microsomal CLint at 2 h, 10 µM","[1]; rat, rat liver microsomes",13.9 µL/min/mg
same,cytotoxic effect in the MTT test,[2],did not exert any cytotoxic effects
same,increase in FPR2 potency as compared to 2,[4],4 fold
"N#Cc1ccc(C[C@H](NC(=O)Nc2ccc(F)cc2)C(=O)N2CCCC2)cc1 [(S)-11c, (S)-1-(3-(4-Cyanophenyl)-1-oxo-1-(pyrrolidin-1-yl)propan-2-yl)-3-(4-fluorophenyl)urea]","Metabolic stability, % after 30 min incubation",[1],65%
same,"microsomal CLint at 2 h, 10 µM","[1]; rat, rat liver microsomes",6.2 µL/min/mg
same,cytotoxic effect in the MTT test,[2],did not exert any cytotoxic effects
same,increase in FPR2 potency as compared to 2,[4],equipotent
"N#Cc1ccc(C[C@H](NC(=O)Nc2ccc(F)cc2)C(=O)N2Cc3ccccc3C2)cc1 [(S)-11d, (S)-1-(3-(4-Cyanophenyl)-1-(isoindolin-2-yl)-1-oxopropan-2-yl)-3-(4-fluorophenyl)urea]","microsomal CLint at 2 h, 10 µM","[1]; rat, rat liver microsomes",24.7 µL/min/mg
same,"half-life at 2 h, 10 µM",[1]; [15],28 min
same,"less stable than (R)- and (S)-11b, (R)- and (S)-11c, and 2",[1],2–3 fold
"N#Cc1ccc(C[C@H](NC(=O)Nc2ccc(F)cc2)C(=O)N2CCc3ccccc32)cc1 [(S)-11e, (S)-1-(3-(4-Cyanophenyl)-1-(indolin-1-yl)-1-oxopropan-2-yl)-3-(4-fluorophenyl)urea]","microsomal CLint at 2 h, 10 µM","[1]; rat, rat liver microsomes",33 µL/min/mg
same,"half-life at 2 h, 10 µM",[1]; [15],21 min
same,"less stable than (R)- and (S)-11b, (R)- and (S)-11c, and 2",[1],2–3 fold
same,release of IL-1β and TNF-α under resting conditions,[3],did not induce the release
same,"effect on LPS-induced cytokines (IL-1β, TNF-α) production",[3],effectively decrease LPS-induced cytokines production
same,effect on LPS-induced NO production,[5],effectively blocked
same,effect on NO production under resting conditions,[5],did not induce any effect
same,effect on LPS-induced activation of caspase-3,[6],significantly reduced this activation
same,effect on LPS-induced cell death (LDH release),[7],effectively blocked LPS-induced cell death
same,effect on cell viability (LDH) under resting conditions,[7],did not induce any effect
"N#Cc1ccc(C[C@H](NC(=O)Nc2ccc(F)cc2)C(=O)N2CCc3ccccc3C2)cc1 [(S)-11f, (S)-1-(3-(4-Cyanophenyl)-1-(3,4-dihydroisoquinolin-2(1H)-yl)-1oxopropan-2-yl)-3-(4-fluorophenyl)urea]","less stable than (R)- and (S)-11b, (R)- and (S)-11c, and 2",[1],2–3 fold
same,"IC50 at FPR2, range in words",[8],nanomolar range
"N#Cc1ccc(C[C@H](NC(=O)Nc2ccc(F)cc2)C(=O)N2CCCc3ccccc32)cc1 [(S)-11g, (S)-1-(3-(4-Cyanophenyl)-1-(3,4-dihydroquinolin-1(2H)-yl)-1-oxopropan-2-yl)-3-(4-fluorophenyl)urea]","less stable than (R)- and (S)-11b, (R)- and (S)-11c, and 2",[1],2–3 fold
"N#Cc1ccc(C[C@H](NC(=O)Nc2ccc(F)cc2)C(=O)N2CCC(F)(F)CC2)cc1 [(S)-11h, (S)-1-(3-(4-Cyanophenyl)-1-(4,4-difluoropiperidin-1-yl)-1-oxopropan-2-yl)-3-(4-fluorophenyl)urea]",cytotoxic effect in the MTT test,[2],did not exert any cytotoxic effects
same,loss of FPR2 potency versus the non-substituted counterpart,[4]; 11h vs 11b,20 fold
"N#Cc1ccc(C[C@H](NC(=O)Nc2ccc(F)cc2)C(=O)N2Cc3ccc(F)cc3C2)cc1 [(S)-11j, (S)-1-(3-(4-Cyanophenyl)-1-(5-fluoroisoindolin-2-yl)-1-oxopropan-2-yl)-3-(4-fluorophenyl)urea]","microsomal CLint at 2 h, 10 µM","[1]; rat, rat liver microsomes",4.1 µL/min/mg
"N#Cc1ccc(C[C@H](NC(=O)Nc2ccc(F)cc2)C(=O)N2CCc3ccc(F)cc32)cc1 [(S)-11l, (S)-1-(3-(4-Cyanophenyl)-1-(6-fluoroindolin-1-yl)-1-oxopropan-2-yl)-3-(4-fluorophenyl)urea]","Metabolic stability, % after 30 min incubation",[1],33%
same,release of IL-1β and TNF-α under resting conditions,[3],did not induce the release
same,"effect on LPS-induced cytokines (IL-1β, TNF-α) production",[3],effectively decrease LPS-induced cytokines production
same,effect on LPS-induced NO production,[5],effectively blocked
same,effect on NO production under resting conditions,[5],did not induce any effect
same,effect on LPS-induced activation of caspase-3,[6],significantly reduced this activation
same,Tmax,"[9]; ip, 10 mg/kg",30 min
same,Tmax,"[9]; iv, 1 mg/kg",5 min
same,blood-brain barrier permeation,"[9]; mice, i.p. 10 mg/kg",able to permeate the blood–brain barrier and to accumulate in the brain
same,time until which the compound was detectable in plasma,"[9]; mice, i.v. 1 mg/kg",4 h
same,effect on LPS-induced cell death (LDH release),[7],effectively blocked LPS-induced cell death
same,effect on cell viability (LDH) under resting conditions,[7],did not induce any effect
N#Cc1ccc(C[C@H](NC(=O)Nc2ccc(F)cc2)C(=O)NCC2(c3ccc(F)c(Cl)c3)CC2)cc1 [Compound 2],"Metabolic stability, % after 30 min incubation",[10],33^b %
same,release of IL-1β and TNF-α,[11],reduces the release
same,efflux ratio ER (BA/AB),[12],2.6
same,release of TNF-α and IL-1β,[13],attenuated the release of TNF-α and IL-1β
same,"neuronal survival, microglial cell density and plaque load",[14],improved neuronal survival and decreased microglial cell density and plaque load
same,selectivity FPR2 versus FPR1,[4]; EC50 FPR1 vs EC50 FPR2,almost equipotent at both receptors
